The target of one assay is T1, DOR (Homo sapiens, UniProt P41143).
T1 construct: host or cells: CHO (CHO-hDOR)
In words: [35S]GTPγS binding assay, CHO-hDOR membranes. In kind it is biochemical. As to conditions: for EC50: [35S]GTPγS, CHO human DOR membranes; for Emax: relative to reference full agonist DPDPE, read-out: DOR % stim. In general terms: Binding of GTPγS marks nucleotide exchange on a G protein.

For another assay, the target named is T2, KOR (Homo sapiens, UniProt P41145).
T2 construct: host or cells: CHO (CHO-hKOR)
T2 sequence (P41145 whole entry): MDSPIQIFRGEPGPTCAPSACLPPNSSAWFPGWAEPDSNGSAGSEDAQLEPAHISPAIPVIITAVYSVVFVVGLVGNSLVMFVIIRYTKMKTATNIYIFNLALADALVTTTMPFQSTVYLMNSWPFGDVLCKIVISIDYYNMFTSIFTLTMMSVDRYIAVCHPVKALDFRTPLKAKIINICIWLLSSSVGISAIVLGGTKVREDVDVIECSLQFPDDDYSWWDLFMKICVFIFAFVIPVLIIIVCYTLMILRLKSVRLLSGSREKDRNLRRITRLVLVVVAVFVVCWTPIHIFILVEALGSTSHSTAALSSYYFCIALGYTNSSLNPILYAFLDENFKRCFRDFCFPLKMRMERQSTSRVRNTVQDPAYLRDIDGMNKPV
In words: [35S]GTPγS binding assay, CHO-hKOR membranes. Format: biochemical. As to conditions: for EC50: [35S]GTPγS, CHO human KOR membranes, read-out: KOR EC50; for Emax: relative to reference full agonist U69,593, read-out: KOR % stim.

The subject of assay [1] is peripheral opioid receptors. In words: antagonism by naloxone methiodide in the acetic acid-induced writhing assay. Format: in vivo, mouse. As to conditions: sc co-administration with naloxone methiodide 1 mg/kg; agonist 50 or 200 μg/kg sc; 30 min. From the text:
To determine whether targeted 6-amino acid and 6-dipeptide analogues inhibit writhing behavior in mice through peripheral opioid receptors activation, we used naloxone methiodide.[27]
Values are shown as mean of writhes ± SEM (n = 6–7 mice per group). ***P < 0.001 vs control group; ^#P < 0.05, ^##P < 0.01 and ^###P < 0.001 vs agonist treated group, ANOVA with Tukey’s post hoc test.
Writhing was induced in male CD1 mice by ip injection of a 0.6% acetic acid aqueous solution as described previously.[48],[62] Groups of mice were administered sc different doses of test compound or saline (control), and 5 min prior to testing (25 min after drug or saline), each animal received an ip injection of acetic acid solution. Each mouse was placed in individual transparent Plexiglas chambers, and the number of writhes was counted during a 10 min observation period. […] For the antagonism study, naloxone methiodide was sc co-administered with the respective opioid agonist, and writhing was assessed as described above.

In the next assay the target is T3, MOR (Rattus norvegicus, UniProt P33535).
T3 construct: Membranes were prepared from Sprague-Dawley rat brains or guinea-pig brains according to the described procedures; tissue Labortierkunde und Laborgenetik, Medizinische Universität Wien; host or cells: Sprague-Dawley rat brain without cerebella
T3 sequence (P33535 whole entry): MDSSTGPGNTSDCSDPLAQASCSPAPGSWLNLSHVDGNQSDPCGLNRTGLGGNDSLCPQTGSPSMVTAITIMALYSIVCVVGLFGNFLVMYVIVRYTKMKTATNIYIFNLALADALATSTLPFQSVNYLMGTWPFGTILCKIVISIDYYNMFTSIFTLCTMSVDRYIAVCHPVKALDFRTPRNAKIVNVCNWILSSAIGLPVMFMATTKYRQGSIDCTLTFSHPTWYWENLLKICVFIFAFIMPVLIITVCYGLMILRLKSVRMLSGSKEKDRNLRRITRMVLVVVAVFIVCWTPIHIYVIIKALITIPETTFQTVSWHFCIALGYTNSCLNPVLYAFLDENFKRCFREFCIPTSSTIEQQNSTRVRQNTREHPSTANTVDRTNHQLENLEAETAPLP
In words: competition radioligand binding, rat brain membranes, [3H]DAMGO. Particulars: for Ki: rat brain membranes, read-out: opioid receptor binding Ki MOR.

The record followed here is paper PMC6348443 (Journal of Medicinal Chemistry, 2018).

Counter-ions that a name gives are not always drawn.

T1 sequence (P41143 whole entry): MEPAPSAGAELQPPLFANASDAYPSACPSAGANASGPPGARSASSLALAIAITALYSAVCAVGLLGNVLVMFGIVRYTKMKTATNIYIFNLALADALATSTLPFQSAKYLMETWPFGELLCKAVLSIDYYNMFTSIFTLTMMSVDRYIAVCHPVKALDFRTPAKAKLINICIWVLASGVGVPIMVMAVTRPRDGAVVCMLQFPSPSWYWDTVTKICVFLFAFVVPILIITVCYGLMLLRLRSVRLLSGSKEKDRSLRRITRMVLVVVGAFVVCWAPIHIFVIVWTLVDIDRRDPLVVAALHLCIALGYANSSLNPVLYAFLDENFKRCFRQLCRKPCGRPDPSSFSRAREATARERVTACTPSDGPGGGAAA

As a reminder, the EC50 is the midpoint of the concentration-response curve. The term Ki denotes the equilibrium dissociation constant of an inhibitor or competing ligand from its target. `CC[C@H](N[C@H]1CC[C@@]2(OC)[C@H]3Cc4ccc(O)c5c4[C@@]2(CCN3C)[C@H]1O5)C(=O)O` [Compound 19a, (2S)-2-[(4,5α-Epoxy-3-hydroxy-14β-methoxy-17-methylmorphinan-6α-yl)amino]-2-ethylacetic Acid Dihydrochloride]: at DOR, the EC50 came to 98.2 ± 5.1 nM and the Emax came to 104 ± 9%. Also, at KOR, the EC50 turned out to be 942 ± 235 nM and the Emax was 61 ± 2%. In addition, the “effect of naloxone methiodide on antinociceptive effect” value in assay [1] was “reversed”. For the same molecule, the “Ki ratio MOR/DOR/KOR” value on MOR (from Ki in rat (MOR, DOR) and guinea-pig (KOR) brain membranes) is on record as 1/49/189. Moreover, the DOR/MOR selectivity ratio at MOR (from Ki in rat brain, for 1 from Ki of ref 44) stood at 49. In addition, at MOR, the Ki was determined as 0.76 ± 0.19 nM.
For the molecule `CO[C@@]12CC[C@H](N[C@H](C(=O)N[C@@H](Cc3ccc(O)cc3)C(=O)O)C(C)C)[C@@H]3Oc4c(O)ccc5c4[C@@]31CCN(C)[C@@H]2C5` [Compound 22a, (2S)-2-[[(4,5α-Epoxy-3-hydroxy-14β-methoxy-17-methylmorphinan-6α-yl)amino]-(2S)-3-methylbutyrylamino]-3-(4-hydroxyphenyl)propionic Acid], the EC50 on DOR worked out at 1.16 ± 0.6 nM; at KOR it was 330 ± 179 nM. Besides, the “functional profile at DOR (full/partial agonist)” value at DOR (full agonist ≥85% of the response to DPDPE) was “full agonists”. The Emax on DOR amounted to 88 ± 5%; at KOR it was 50 ± 2%. Moreover, in assay [1], the “effect of naloxone methiodide on antinociceptive effect” value is reported as “reversed”. Besides, the Ki at MOR was 0.82 ± 0.13 nM. The “increase in MOR binding affinity vs comparator” value on MOR (rat brain, 17b vs 4b, 16a/b vs 7a/b, 22a/b vs 7a, 7b and 9b, 14a vs 14b) lay within 4 to 7 times.
